In brackets after ≈: the same amount, converted by molar mass.
How the values were obtained:
[1] = Drug transport across human Caco-2 cells; format: in vitro ADME; settings: human, Caco-2 monolayers, pH 7.2, 37° C.; for Papp A→B at 10 µM: apical-to-basal, read-out: PEAB; for Papp B→A at 10 µM: basal-to-apical, read-out: PEBA
Source text: Assay for Determination of Drug Transport Across Human Caco-2 Cells
The assay provides information on the potential of a compound to pass the cell membrane, on the extent of oral absorption as well as on whether the compound is actively transported by uptake and/or efflux transporters. For the measurement of permeability across polarized, confluent human cancer colon carcinoma cells 2 (Caco-2) cell monolayers grown on permeable filter supports are used as the in vitro absorption model.
Apparent permeability coefficients (PE) of the compounds across the Caco-2 monolayers are measured (pH 7.2, 37° C.) in apical-to-basal (AB) (absorptive) and basal-to-apical (BA) (secretory) transport direction. AB permeability (PEAB) represents drug absorption from the intestine into the blood and BA permeability (PEBA) drug secretion from the blood back into the intestine via both passive permeability as well as active transport mechanisms mediated by efflux and uptake transporters that are expressed on the Caco-2 cells. The compounds are assigned to permeability/absorption classes by comparison of the AB permeabilities with the AB permeabilities of reference compounds with known in vitro permeability and oral absorption in the human. Identical or similar permeabilities in both transport directions indicate passive permeation, vectorial permeability points to additional active transport mechanisms. […] Active transport is concentration-dependently saturable.
Caco-2 cells (1-2*10^5 cells/cm^2 area) are seeded on filter inserts (Costar transwell polycarbonate or PET filters, 0.4 μm pore size) and cultured (DMEM) for 10 to 25 days. Compounds are dissolved in appropriate solvent (like DMSO, 1-20 mM stock solutions). Stock solutions are diluted with HTP-4 buffer (128.13 mM NaCl, 5.36 mM KCl, 1 mM MgSO4, 1.8 mM CaCl2, 4.17 mM NaHCO3, 1.19 mM Na2HPO4×7H2O, 0.41 mM NaH2PO4×H2O, 15 mM HEPES, 20 mM glucose, pH 7.2) to prepare the transport solutions (typically 10 μM compound, final DMSO<=0.5%). The transport solution (TL) is applied to the apical or basolateral donor side for measuring A-B or B-A permeability (3 filter replicates), respectively. The receiver side contains HTP-4 buffer supplemented with 2% BSA. Samples are collected at the start and end of experiment from the donor and at various time intervals for up to 2 hours also from the receiver side for concentration measurement by LC-MS/MS or scintillation counting. Sampled receiver volumes are replaced with fresh receiver solution.
The apparent permeability coefficients (PEAB and PEBA) of selected compounds in the Caco-2 drug transport assay described above are listed in Table 9.

[2] = Metabolic stability with human liver microsomes; format: in vitro ADME; settings: pH 7.6; pooled human liver microsomes, 37° C., 1 μM test compound, 1 mg/ml microsomal protein, NADPH; read-out: t1/2 INVITRO
[3] = molecular target: Human neutrophil elastase (Homo sapiens (Human), UniProt P08246); assay: Human Neutrophil Elastase Assay; format: biochemical; settings: substrate MeOSuc-Ala-Ala-Pro-Val-AMC 250 μM, pH 7.5, room temperature
Chain of Human neutrophil elastase (P08246 30-247): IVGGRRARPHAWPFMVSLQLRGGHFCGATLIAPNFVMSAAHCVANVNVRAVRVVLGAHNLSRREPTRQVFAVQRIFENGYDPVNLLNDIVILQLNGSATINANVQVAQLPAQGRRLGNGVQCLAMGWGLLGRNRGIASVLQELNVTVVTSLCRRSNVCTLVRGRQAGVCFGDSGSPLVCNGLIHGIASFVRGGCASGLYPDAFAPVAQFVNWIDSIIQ

[4] = molecular target: neutrophil elastase in human plasma (Homo sapiens (Human), UniProt P08246); assay: Neutrophil elastase inhibitory activity in human plasma; format: biochemical; settings: human plasma assay (zymosan-stimulated blood plasma), substrate 250 μM, pH 7.5
Chain of neutrophil elastase in human plasma (P08246 30-247): as above

[5] = Aqueous solubility (High Throughput Method); format: physicochemical; settings: McIlvaine buffer pH 6.8 with 2.5% DMSO, aqueous buffer, kinetic from dmso stock; McIlvaine buffer pH 6.8, 2.5% DMSO, 24 h shaking
Method: Assay for Determination of Aqueous Solubility (“High Throughput Method”)
Starting from a 10 mM DMSO stock solution, aliquots are diluted with acetonitrile/water (1/1) and McIlvaine buffer pH 6.8, respectively. After 24 h of shaking, the solutions or suspensions are filtered and analyzed by LC-UV. The amount dissolved in buffer is compared to the amount dissolved in the acetonitrile/water (1/1) solution. Solubility is measured from 0.001 to 0.125 mg/ml at a DMSO concentration of 2.5%. If more than 90% of the compound is dissolved in buffer, the value is marked with “>”.

SMILES	Papp A→B at 10 µM [1]	Papp B→A at 10 µM [1]	half-life at 1 μM [2]	IC50 [3]	IC50 [4]	solubility at 24 h [5]
N#Cc1ccc([C@H]2NC(=O)N(c3cccc(C(F)F)c3)C3=C2C(=O)NCC3)cc1 [Example 2A, (R)-4-(1-(3-(Difluoromethyl)phenyl)-2,5-dioxo-1,2,3,4,5,6,7,8-octahydropyrido[4,3-d]-pyrimidin-4-yl)benzonitrile]	4.7 ×10⁻⁶ cm/s	31 ×10⁻⁶ cm/s	> 2.17 h	3.2 nM	5.4 nM	> 92 µg/mL
CN1CCC2=C(C1=O)[C@@H](c1ccc(C#N)cc1)NC(=O)N2c1cccc(C(F)(F)F)c1 [Example 4A, (R)-4-(6-Methyl-2,5-dioxo-1-(3-(trifluoromethyl)phenyl)-1,2,3,4,5,6,7,8-octahydropyrido[4,3-d]pyrimidin-4-yl)benzonitrile]	17 ×10⁻⁶ cm/s	34 ×10⁻⁶ cm/s	> 2.17 h	1.3 nM	2.7 nM	> 89 µg/mL
CNC(=O)CN1C(=O)N(c2cccc(C(F)(F)F)c2)C2=C(C(=O)N(C)CC2)C1c1ccc(C#N)cc1 (centres unmarked) [Example 15, 2-(4-(4-Cyanophenyl)-6-methyl-2,5-dioxo-1-(3-(trifluoromethyl)phenyl)-1,2,5,6,7,8-hexahydropyrido[4,3-d]pyrimidin-3(4H)-yl)-N-methylacetamide]	–	–	–	3.2 nM	7.8 nM	–
CN(C)C(=O)CN1C(=O)N(c2cccc(C(F)(F)F)c2)C2=C(C(=O)N(C)CC2)C1c1ccc(C#N)cc1 (centres unmarked) [Example 15.1]	–	–	–	< 1 nM	2.6 nM	–
CNC(=O)N1C(=O)N(c2cccc(C(F)(F)F)c2)C2=C(C(=O)NCC2)C1c1ccc(C#N)cc1 (centres unmarked) [Example 16, 4-(4-Cyanophenyl)-N-methyl-2,5-dioxo-1-(3-(trifluoromethyl)phenyl)-1,2,5,6,7,8-hexahydropyrido[4,3-d]pyrimidine-3(4H)-carboxamide]	–	–	–	< 1 nM	2.4 nM	–
N#Cc1ccc(C2NC(=O)N(c3cccc(C(F)(F)F)c3)C3=C2C(=O)N(C(=O)NCCO)CC3)cc1 (centres unmarked) [Example 18, 4-(4-Cyanophenyl)-N-(2-hydroxyethyl)-2,5-dioxo-1-[3-(trifluoromethyl)phenyl]-1H,2H,3H,4H,5H,6H,7H,8H-pyrido[4,3-d]pyrimidine-6-carboxamide]	–	–	–	3.8 nM	6.7 nM	–
CCNC(=O)N1CCC2=C(C1=O)C(c1ccc(C#N)cc1)NC(=O)N2c1cccc(C(F)(F)F)c1 (centres unmarked) [Example 19, 4-(4-Cyanophenyl)-N-ethyl-2,5-dioxo-1-[3-(trifluoromethyl)phenyl]-1H,2H,3H,4H,5H,6H,7H,8H-pyrido[4,3-d]pyrimidine-6-carboxamide]	–	–	–	4.9 nM	18 nM	–
N#Cc1ccc(C2NC(=O)N(c3cccc(C(F)(F)F)c3)C3=C2C(=O)N(C(=O)NCCCO)CC3)cc1 (centres unmarked) [Example 20, 4-(4-Cyanophenyl)-N-(3-hydroxypropyl)-2,5-dioxo-1-[3-(trifluoromethyl)phenyl]-1H,2H,3H,4H,5H,6H,7H,8H-pyrido[4,3-d]pyrimidine-6-carboxamide]	–	–	–	3.7 nM	6.9 nM	–
CN1C(=O)N(c2cccc(C(F)(F)F)c2)C2=C(C(=O)NCC2)C1c1ccc(C#N)cc1Br (centres unmarked) [Example 22, 3-Bromo-4-{3-methyl-2,5-dioxo-1-[3-(trifluoromethyl)phenyl]-1H,2H,3H,4H,5H,6H,7H,8H-pyrido[4,3-d]pyrimidin-4-yl}benzonitrile]	–	–	–	< 1 nM	2.5 nM	–
CN1C(=O)N(c2cccc(C(F)(F)F)c2)C2=C(C(=O)NCC2)C1c1ccc(C#N)cc1-c1ccncc1 (centres unmarked) [Example 33, 4-{3-Methyl-2,5-dioxo-1-[3-(trifluoromethyl)phenyl]-1H,2H,3H,4H,5H,6H,7H,8H-pyrido[4,3-d]pyrimidin-4-yl}-3-(pyridin-4-yl)benzonitrile]	–	–	–	< 1 nM	5.3 nM	–

Stronger by IC50 [4], values ahead:

Papp A→B at 10 µM [1]	Papp B→A at 10 µM [1]	half-life at 1 μM [2]	IC50 [3]	IC50 [4]	solubility at 24 h [5]	SMILES
37 ×10⁻⁶ cm/s	80 ×10⁻⁶ cm/s	> 2.17 h	< 1 nM	1 nM	> 88 µg/mL	CN1C(=O)N(c2cccc(C(F)(F)F)c2)C2=C(C(=O)NCC2)[C@H]1c1ccc(C#N)cc1 [Example 6, (R)-4-(3-Methyl-2,5-dioxo-1-(3-(trifluoromethyl)phenyl)-1,2,3,4,5,6,7,8-octahydropyrido[4,3-d]pyrimidin-4-yl)benzonitrile]
–	–	–	< 1 nM	< 1 nM	–	N#Cc1ccc(C2C3=C(CCNC3=O)N(c3cccc(C(F)(F)F)c3)C(=O)N2C(=O)NCCO)cc1 (centres unmarked) [Example 17, 4-(4-Cyanophenyl)-N-(2-hydroxyethyl)-2,5-dioxo-1-[3-(trifluoromethyl)phenyl]-1H,2H,3H,4H,5H,6H,7H,8H-pyrido[4,3-d]pyrimidine-3-carboxamide]
–	–	–	1.9 nM	1.9 nM	–	N#Cc1ccc(C2NC(=O)N(c3cccc(C(F)(F)F)c3)C3=C2C(=O)NCC3)c(Br)c1 (centres unmarked) [Example 21, 3-Bromo-4-{2,5-dioxo-1-[3-(trifluoromethyl)phenyl]-1H,2H,3H,4H,5H,6H,7H,8H-pyrido[4,3-d]pyrimidin-4-yl}benzonitrile]
–	–	–	< 1 nM	1.1 nM	–	N#Cc1ccc(C2NC(=O)N(c3cccc(C(F)(F)F)c3)C3=C2C(=O)NCC3)c(-c2cnco2)c1 (centres unmarked) [Example 23, 4-{2,5-Dioxo-1-[3-(trifluoromethyl)phenyl]-1H,2H,3H,4H,5H,6H,7H,8H-pyrido-[4,3-d]pyrimidin-4-yl}-3-(1,3-oxazol-5-yl)benzonitrile]
–	–	–	< 1 nM	1.4 nM	–	Cn1cc(-c2cc(C#N)ccc2C2NC(=O)N(c3cccc(C(F)(F)F)c3)C3=C2C(=O)NCC3)cn1 (centres unmarked) [Example 24, 4-{2,5-Dioxo-1-[3-(trifluoromethyl)phenyl]-1H,2H,3H,4H,5H,6H,7H,8H-pyrido-[4,3-d]pyrimidin-4-yl}-3-(1-methyl-1H-pyrazol-4-yl)benzonitrile]
–	–	–	< 1 nM	< 1 nM	–	N#Cc1ccc(C2NC(=O)N(c3cccc(C(F)(F)F)c3)C3=C2C(=O)NCC3)c(C(F)(F)F)c1 (centres unmarked) [Example 27, 4-{2,5-Dioxo-1-[3-(trifluoromethyl)phenyl]-1H,2H,3H,4H,5H,6H,7H,8H-pyrido-[4,3-d]pyrimidin-4-yl}-3-(trifluoromethyl)benzonitrile]
–	–	–	< 1 nM	1.1 nM	–	CN1C(=O)N(c2cccc(C(F)(F)F)c2)C2=C(C(=O)NCC2)C1c1ccc(C#N)cc1C(F)(F)F (centres unmarked) [Example 28, 4-{3-Methyl-2,5-dioxo-1-[3-(trifluoromethyl)phenyl]-1H,2H,3H,4H,5H,6H,7H,8H-pyrido[4,3-d]pyrimidin-4-yl}-3-(trifluoromethyl)benzonitrile]
24 ×10⁻⁶ cm/s	91 ×10⁻⁶ cm/s	–	< 1 nM	1.4 nM	89 µg/mL (≈ 189 µM)	CN1CCC2=C(C1=O)C(c1ccc(C#N)cc1CO)N(C)C(=O)N2c1cccc(C(F)(F)F)c1 (centres unmarked) [Example 38, 4-{3,6-Dimethyl-2,5-dioxo-1-[3-(trifluoromethyl)phenyl]-1H,2H,3H,4H,5H,6H,7H,8H-pyrido[4,3-d]pyrimidin-4-yl}-3-(hydroxymethyl)benzonitrile]
6 ×10⁻⁶ cm/s	91 ×10⁻⁶ cm/s	> 2.17 h	–	1 nM	93 µg/mL (≈ 170 µM)	CN1CCC2=C(C1=O)C(c1ccc(C#N)cc1-c1ccc(=O)n(C)n1)N(C)C(=O)N2c1cccc(C(F)(F)F)c1 (centres unmarked) [Example 41, 4-{3,6-Dimethyl-2,5-dioxo-1-[3-(trifluoromethyl)phenyl]-1H,2H,3H,4H,5H,6H,7H,8H-pyrido[4,3-d]pyrimidin-4-yl}-3-(1-methyl-6-oxo-1,6-dihydropyridazin-3-yl)-benzonitrile]

Reference: US9657015B2, “Substituted bicyclic dihydropyrimidinones and their use as inhibitors of neutrophil elastase activity” (Boehringer Ingelheim International GmbH, priority 2014, dated 2017)
